In assay [1] the test system is endothelin-1-induced increase in cytosolic calcium ion concentration (rat aortic smooth muscle A7r5 cells). Nature of the assay: Inhibition of the endothelin-1-induced increase in cytosolic calcium ion concentration in A7r5 cells. The class given is cell-based. Particulars: fura-2, 1 min pre-incubation, 10^-8 M endothelin-1, read-out: IC50 (concentration to inhibit the endothelin-1-induced increase in cytosolic calcium ion by 50%). On the procedure:
Inhibition of the endothelin-1-induced increase in cytosolic calcium ion concentration
To a cuvette was put the suspension of rat aortic smooth muscle A7r5 cells, obtained from Dainippon Pharmaceutical Co., Ltd., loaded with 2 μM of fura-2 (Dojindo), then the change in fluorescence intensity was determined with a calcium analizer (CAF100, Nippon Bunkou Co.). In the determination,the exciting was performed at 340 nm and 380 nm and the recording at 510 nm. Calculation for the concentration of cytosolic calcium ion was performed according to the method of Grynkiewicz et al. (J.Biol.Chem., 260, P. 3440-3450, 1985). The experiment was performed as follows: at first, the present compounds were added to the cell suspension in the cuvette and the mixture was incubated for 1 min. Then, 10^-8 M of endothelin-1 was added thereto and the change in fluorescence intensity was determined. The concentration of the present compounds to inhibit the endothelin-1-induced increase in cytosolic calcium ion by 50%, (i.e., IC50) is shown at Table 2.

The target in assay [2] is T1, endothelin-receptor (membrane fraction of the media from porcine aorta) (Sus scrofa, UniProt Q29010).
T1 construct: Membrane fractions were prepared from porcine and rat hearts, rat thoracic aorta, and the media of porcine aorta; from tissue; host or cells: media of porcine aorta, membrane fraction
T1 sequence (Q29010 21-427): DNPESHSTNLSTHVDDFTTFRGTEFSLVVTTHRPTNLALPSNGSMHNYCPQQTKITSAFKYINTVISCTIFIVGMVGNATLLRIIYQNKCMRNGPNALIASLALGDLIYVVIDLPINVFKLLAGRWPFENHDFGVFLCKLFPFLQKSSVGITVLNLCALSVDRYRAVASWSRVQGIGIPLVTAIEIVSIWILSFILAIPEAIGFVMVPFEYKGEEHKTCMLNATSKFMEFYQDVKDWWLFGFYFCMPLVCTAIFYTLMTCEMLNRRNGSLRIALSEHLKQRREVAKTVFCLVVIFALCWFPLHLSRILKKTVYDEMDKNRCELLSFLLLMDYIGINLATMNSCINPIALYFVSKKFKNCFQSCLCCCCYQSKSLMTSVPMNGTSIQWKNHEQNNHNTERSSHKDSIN
Briefly: Inhibitory effect on the binding of 125I-endothelin-1 to the receptor, media of porcine aorta membrane. Particulars: 25 pM 125I-endothelin-1, 37° C., 1 hour, read-out: IC50 (concentration to inhibit 50% of the specific binding of 125I-endothelin-1). The procedure:
(§1) Inhibitory Effect on the Binding of ^125 I-Endothelin-1 to the Receptor
(§2) Membrane fractions were prepared from porcine and rat hearts, rat thoracic aorta, and the media of porcine aorta. Each membrane fraction was incubated, in the presence or absence of the present compound 1 with 25 pM of ^125 I-endothelin-1 at 37° C. for 1 hour. After the reaction was completed, ^125 I-endothelin-1 bound to each membrane fraction was separated by rapid filtration through glass fiber filters and its radioactivity was determined with a gamma-counter. The specific binding was calculated by subtracting, from the total binding, the non-specific binding which was determined in the presence of 10^-7 M of non-radioactive endothelin-1. The concentration of the present compound 1 to inhibit 50% of the specific binding (i.e., IC50) is shown at Table 1.

In assay [3] the target is T2, endothelin-receptor (membrane fraction of porcine heart) (Sus scrofa, UniProt Q29010).
T2 construct: Membrane fractions were prepared from porcine and rat hearts; from tissue; host or cells: porcine heart, membrane fraction
T2 sequence (Q29010 21-427): T1 sequence (Q29010 21-427)
Nature of the assay: Inhibitory effect on the binding of 125I-endothelin-1 to the receptor, porcine heart membrane. Particulars: 25 pM 125I-endothelin-1, 37° C., 1 hour, read-out: IC50 (concentration to inhibit 50% of the specific binding of 125I-endothelin-1). The procedure:
as §1, §2

Assay [4] deals with T3, endothelin-receptor (membrane fraction of rat aorta) (Rattus norvegicus, UniProt P26684).
T3 construct: Membrane fractions were prepared from porcine and rat hearts, rat thoracic aorta, and the media of porcine aorta; from tissue; host or cells: rat thoracic aorta, membrane fraction
T3 sequence (P26684 21-426): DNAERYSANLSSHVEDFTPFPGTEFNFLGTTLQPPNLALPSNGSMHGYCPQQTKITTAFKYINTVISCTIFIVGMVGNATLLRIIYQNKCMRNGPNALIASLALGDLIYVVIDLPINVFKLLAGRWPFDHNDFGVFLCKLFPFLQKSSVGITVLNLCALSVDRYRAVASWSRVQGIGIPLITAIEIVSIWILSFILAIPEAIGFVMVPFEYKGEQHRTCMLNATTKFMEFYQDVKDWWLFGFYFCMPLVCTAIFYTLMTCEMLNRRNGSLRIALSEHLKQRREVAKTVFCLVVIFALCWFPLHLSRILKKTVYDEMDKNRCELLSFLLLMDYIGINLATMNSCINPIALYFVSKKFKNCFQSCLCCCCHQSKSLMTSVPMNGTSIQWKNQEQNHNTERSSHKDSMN
Briefly: Inhibitory effect on the binding of 125I-endothelin-1 to the receptor, rat aorta membrane. Conditions: 25 pM 125I-endothelin-1, 37° C., 1 hour, read-out: IC50 (concentration to inhibit 50% of the specific binding of 125I-endothelin-1). The procedure:
as §1, §2

Regarding `CC(=O)Oc1cccc(C=CC(=O)OCC23CCC4(C(=O)O)CCC(C)(C)CC4C2=CCC2C4(C)CCC(=O)C(C)(C)C4CCC23C)c1` (stereo not drawn) [Compound 4], the IC50 in assay [1] worked out at 34 nM.
The same measure, in the same setting: in the case of `CC1(C)CCC2(C(=O)O)CCC3(COC(=O)C=Cc4ccc(O)cc4)C(=CCC4C5(C)CCC(=O)C(C)(C)C5CCC43C)C2C1` (stereo not drawn) [Compound 11] it was 27 nM; in that of `CC1(C)CCC2(C(=O)O)CCC3(COC(=O)C=Cc4cc(O)cc(O)c4)C(=CCC4C5(C)CCC(=O)C(C)(C)C5CCC43C)C2C1` (stereo not drawn) [Compound 9], 4.5 nM; in that of `CC(=O)Oc1ccc(C=CC(=O)OCC23CCC4(C(=O)O)CCC(C)(C)CC4C2=CCC2C4(C)CCC(=O)C(C)(C)C4CCC23C)cc1` (stereo not drawn) [Compound 10], 180 nM.
On the same count and under the same terms, the same measure for `CC1(C)CCC2(C(=O)O)CCC3(COC(=O)C=Cc4cccc(OS(=O)(=O)O)c4)C(=CCC4C5(C)CCC(=O)C(C)(C)C5CCC43C)C2C1` (stereo not drawn) [Compound 6]: 14 nM; for `CC1(C)CCC2(C(=O)O)CCC3(COC(=O)C=Cc4cccc(O)c4)C(=CCC4C5(C)CCC(=O)C(C)(C)C5CCC43C)C2C1` (stereo not drawn) [Compound 5]: 11 nM.
Turning to `CC1(C)CCC2(C(=O)O)CCC3(COC(=O)C=Cc4ccc(O)c(O)c4)C(=CCC4C5(C)CCC(=O)C(C)(C)C5CCC43C)C2C1` (stereo not drawn) [Compound 1], the IC50 in assay [2] came out at 32 nM; in assay [3], 83 nM; in assay [4], 56 nM; in assay [1], 11 nM.
`CC1(C)CCC2(C(=O)O)CCC3(COC(=O)C=Cc4cccc(OC(=O)CCC(=O)O)c4)C(=CCC4C5(C)CCC(=O)C(C)(C)C5CCC43C)C2C1` (stereo not drawn) [Compound 7]: the IC50 in assay [1] was 9 nM.
Same read-out and setting: in the case of `CC1(C)CCC2(C(=O)O)CCC3(COC(=O)C=Cc4ccccc4)C(=CCC4C5(C)CCC(=O)C(C)(C)C5CCC43C)C2C1` (stereo not drawn) [Compound 3] it was 18 nM.
Turning to `CC(=O)Oc1cc(C=CC(=O)OCC23CCC4(C(=O)O)CCC(C)(C)CC4C2=CCC2C4(C)CCC(=O)C(C)(C)C4CCC23C)cc(OC(C)=O)c1` (stereo not drawn) [Compound 8], in assay [1], the IC50 worked out at 260 nM.
On the same count and under the same terms, in the case of `CC1(C)CCC2(C(=O)O)CCC3(COC(=O)C=Cc4ccccn4)C(=CCC4C5(C)CCC(=O)C(C)(C)C5CCC43C)C2C1` (stereo not drawn) [Compound 13] it was 25 nM; in that of `CC1(C)CCC2(C(=O)O)CCC3(COC(=O)C=Cc4ccccc4O)C(=CCC4C5(C)CCC(=O)C(C)(C)C5CCC43C)C2C1` (stereo not drawn) [Compound 12], 27 nM.

The values are drawn from patent publication US5248807A, “Triterpene derivatives” (Shionogi & Co., Ltd., priority 1991, dated 1993).
